The text below walks through data of BindingDB's records for doi:10.1021/jm00049a020 (Pharmacia-Farmitalia Carlo Erba, 1994).

One may read the kon as the second-order rate constant of association.

The test addresses T1, Neutrophil elastase (Homo sapiens, UniProt P08246).
T1 sequence (P08246 whole entry): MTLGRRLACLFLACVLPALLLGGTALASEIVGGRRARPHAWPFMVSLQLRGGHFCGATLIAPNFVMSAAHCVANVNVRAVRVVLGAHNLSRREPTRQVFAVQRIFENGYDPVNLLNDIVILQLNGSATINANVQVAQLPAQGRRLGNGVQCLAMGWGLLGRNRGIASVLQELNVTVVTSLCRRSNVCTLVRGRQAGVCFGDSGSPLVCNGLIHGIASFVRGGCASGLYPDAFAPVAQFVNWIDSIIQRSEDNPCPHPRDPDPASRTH
As to the kind of experiment: Tested for the rate constant against Human Leukocyte Elastase (HLE) inactivation. The note with it: read-out: kon (M-1-s-1).

Take `CO[C@H]1C(=O)N2C(C(=O)N3CCCC3C(=O)O)=C(COC(C)=O)CS(=O)(=O)[C@H]12` (stereo partly drawn) [1-(3-Acetoxymethyl-7-methoxy-5,5,8-trioxo-5lambda*6*-thia-1-aza-bicyclo[4.2.0]oct-2-ene-2-carbonyl)-pyrrolidine-2-carboxylic acid(L-658,758)]: the kon was found to be 1800 M⁻¹ s⁻¹.
